# Measurements from patent US20050130961A1, “Muscarinic M1 receptor agonists for pain management” (priority 2003, published 2005).
# Where two headings read alike, the source gives them in different places.
# Tests used:
# [1] = test system: thermal hyperalgesia; test: CCI/Thermal Hyperalgesia (paw withdrawal latency to radiant heat); type: in vivo; details: CCI rats; for dose that significantly reversed thermal hyperalgesia: post-hoc comparison relative to vehicle
# Protocol: (§1) Rats were anesthetized under aseptic and heated conditions using a combination of 1.6 ml ketamine (100 mg/ml) and 1.6 ml xylazine (100 mg/ml) in 6.8 ml 0.9% saline at a volume of 0.1 ml/100 g. The left quadriceps was shaved and scrubbed thoroughly with an iodine solution. The sciatic nerve was exposed at the level of the sciatic notch distally to the sciatic trifurcation. The nerve was very carefully freed from the underlying muscle and connective tissue without causing trauma to the nerve itself. Using 4-0 chromic catgut suture material, four semi-loose ligatures were tied around the sciatic nerve starting at the most proximal level, next to the sciatic notch, spaced roughly 1 mm apart and ending proximal to the sciatic trifurcation. […] The muscular incision was closed with 4-0 silk suture material and the skin was stapled with wound clips. The animals were closely observed until they recovered completely from the anesthetic. The surgery was the same for the hyperalgesia and allodynia experiments.
# For hyperalgesia testing, rats were placed in a tinted plastic box on top of a clear glass, temperature-regulated floor maintained at 31±1° C. The floor contained a focal radiant heat source (halogen projection lamp CXL/CXP, 50 W, 8 v, USHIO, Tokyo).
# To initiate the test, rats were placed in the tinted boxes and allowed 10-20 minutes to acclimate to the new environment. The radiant heat source was then positioned under the plantar surface of the hind paw. Upon activation of the heat source, a timer was simultaneously triggered. Upon reflex movement of the hind paw, a motion sensor was activated stopping the timer and inactivating the heat source. The thermal source was adjusted so that the average response latency for an uninjured animal was no greater than 20 seconds. Each rat had two days of pre-operative baseline latency measurements in which the left rear hind paw plantar surface was measured three to four times. Two to three left postoperative baseline latency measurements were taken before and after the treatment was given. Postoperative day 2 and 4 measurements yielded the greatest degree of hyperalgesia and thus were utilized in this assay. Each animal was tested twice with at least 48 hours separating each test.
# Thermal hyperalgesia developed in the surgical-treated left paw as evidenced by a decrease in paw withdrawal latencies to a thermal stimulus. The maximal hyperalgesia occurred on post-operative days 2 through 4. Paw withdrawal latencies on the surgically-treated left side gradually returned to baseline levels over the course of 5 to 12 days post-surgery.
# [2] = test system: tactile allodynia; test: CCI/Tactile Allodynia (von Frey hairs); type: in vivo; details: CCI rats; for dose that reversed tactile allodynia: i.p., post-hoc comparison
# Protocol: as §1
# The onset and duration of significant mechanical allodynia post CCI surgery is approximately 10-14 days and lasts for roughly two months. Within this allodynic time frame, and for each specific allodynia experiment, pre and post drug administration measurements were taken with seven von Frey hairs which are designated by log (10* force required to bend hair, mg) and ranged from 2-26 grams (#'s 4.31-5.46). Each hair was pressed perpendicularly against the left injured plantar mid-hind paw surface with sufficient force to cause a slight bending, and was held for 6-8 seconds starting with the thinnest gauged hair and working up to the thickest. A positive response was recorded when the injured paw was sharply withdrawn, and this response was confirmed as positive by testing the next thickest gauged hair for the same response. Only when a response was seen twice was the score accepted. If the maximum gram force of 26 was reached without a response, this was considered the peak threshold cutoff for allodynic behavior and the score was recorded. Animals were considered allodynic when the post surgery baseline measurements were 6 grams and below. Two baseline days of measurements were taken with one round of testing occurring per day. On the day of drug testing, one round of baseline measurements were taken, the appropriate pretreatment was administered i.p. and a second round of measurements were recorded. Each animal was utilized in multiple experiments, with one treatment per experiment, and an appropriate washout period in between experiments.
# [3] = molecular target: T1, M(2) muscarinic receptor (Homo sapiens, UniProt P08172); test: R-SAT functional receptor assay, M(2); type: cell-based; details: for Emax: read-out: M2 % efficacy
# T1 construct: expressed in transfected cells
# T1 sequence (P08172 1-466): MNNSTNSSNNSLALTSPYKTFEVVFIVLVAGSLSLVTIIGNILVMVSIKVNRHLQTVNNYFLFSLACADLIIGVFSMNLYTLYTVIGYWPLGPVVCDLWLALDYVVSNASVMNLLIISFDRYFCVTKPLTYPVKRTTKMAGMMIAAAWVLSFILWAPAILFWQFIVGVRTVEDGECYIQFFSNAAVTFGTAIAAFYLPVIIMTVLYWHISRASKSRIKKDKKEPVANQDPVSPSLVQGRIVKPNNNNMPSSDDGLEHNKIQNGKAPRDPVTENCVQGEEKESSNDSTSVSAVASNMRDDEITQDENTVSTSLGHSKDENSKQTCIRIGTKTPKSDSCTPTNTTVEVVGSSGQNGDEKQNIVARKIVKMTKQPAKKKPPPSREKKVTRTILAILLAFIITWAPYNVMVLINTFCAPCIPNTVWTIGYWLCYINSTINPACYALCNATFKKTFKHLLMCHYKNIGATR
# Text: (§2) The functional receptor assay, Receptor Selection and Amplification Technology (R-SAT), essentially as disclosed in U.S. Pat. Nos. 5,707,798, 5,912,132, and 5,955,281, which are all hereby incorporated by reference in their entirety, was used to investigate the pharmacological properties of known and novel muscarinic agonists.
# [4] = test system: acute thermal pain; test: Acute Thermal Analgesia (tail withdrawal from 55° C. water); type: in vivo; details: rats; for alleviating acute thermal pain, in words / dose active in acute antinociception (tail withdrawal): 55° C. water; for Acute pain, minimal effective dose: NA = not active at the highest tested dose of 30 mg/kg
# Protocol: Water was heated and maintained at 55° C.±1° C. with a probe regulated hot plate. Female rats weighing approximately 200 g -250 g were acclimated days in advance by placing them into and removing them from a plastic rat restrainer. On the day of the experiment each rat was placed in the restrainer 1 minute before the test was performed. Roughly one inch of the tail was submerged into the water as a timer was initiated. Once the tail was completely removed from the water, the timer was stopped and the time was recorded. […] One round of baseline measurements were collected. The test compound was administered and after the appropriate pretreatment interval, the procedure was repeated. Each animal was utilized in multiple experiments, with one treatment per experiment, and an appropriate washout period of at least 48 hours between experiments. The pre-treatment baseline tail withdrawal latency average was 2.281 s±0.25. […] At a dose of 10 mg/kg, morphine [F(3,23)=5.903, p<0.01] was antinociceptive.
# [5] = molecular target: T2, M(1) muscarinic receptor (Homo sapiens, UniProt P11229); test: R-SAT functional receptor assay, M(1); type: cell-based; details: for Emax: read-out: M1 % efficacy
# T2 construct: expressed in transfected cells
# T2 sequence (P11229 1-460): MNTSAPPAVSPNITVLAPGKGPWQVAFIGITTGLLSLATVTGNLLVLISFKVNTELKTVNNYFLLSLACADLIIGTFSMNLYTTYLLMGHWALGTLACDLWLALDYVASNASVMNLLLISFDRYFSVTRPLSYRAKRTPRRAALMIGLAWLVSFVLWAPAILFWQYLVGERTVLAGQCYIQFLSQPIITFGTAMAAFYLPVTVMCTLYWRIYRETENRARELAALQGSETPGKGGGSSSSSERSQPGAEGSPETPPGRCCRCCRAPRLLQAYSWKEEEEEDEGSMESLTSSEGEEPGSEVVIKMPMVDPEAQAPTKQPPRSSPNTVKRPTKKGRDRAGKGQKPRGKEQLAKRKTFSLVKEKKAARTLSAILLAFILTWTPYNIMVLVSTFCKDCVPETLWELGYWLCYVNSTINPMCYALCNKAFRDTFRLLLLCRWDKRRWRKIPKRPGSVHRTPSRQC
# Text: as §2
# [6] = test system: tactile allodynia; test: Partial Sciatic Ligation (PSL) Surgery/Tactile Allodynia; type: in vivo, mice
# [7] = test system: rats; test: Muscarinic Side Effects; details: of N tested
# [8] = R-SAT, read-out: M2 pEC50 (converted)
# [9] = R-SAT, read-out: M1 pEC50 (converted)
Structure (SMILES),"Antihyperalgesic, minimal effective dose [1] [mg/kg]",dose that significantly reversed thermal hyperalgesia [1] [mg/kg],"Antiallodynic, minimal effective dose [2] [mg/kg]",dose that reversed tactile allodynia [2] [mg/kg],"agonist character at M(2) receptor, in words ([3]; R-SAT)","EC50 [3, 8] [nM]","alleviating acute thermal pain, in words [4]","agonist character at M(1) receptor, in words ([5]; R-SAT)","EC50 [5, 9] [nM]","Emax ([3]; R-SAT, relative to carbachol) [%]",dose active in acute antinociception (tail withdrawal) [4] [mg/kg],"Acute pain, minimal effective dose [4] [mg/kg]","Emax ([5]; R-SAT, relative to carbachol) [%]",further results
CCCCC1CCN(CCCN2CCOc3ccc(C)cc32)CC1 [Formula (VIII)],10.0,10,30.0,30,weak partial agonists,501,not active,potent and efficacious M(1) agonist,20,–,–,–,–,Emax [3]: 39%; Emax [5]: 81%
CO/N=C/C1=CCCN(C)C1 [Milameline],0.3,–,0.3,–,potent and efficacious full agonists,631,–,potent and efficacious full agonists,398,110,1.0,1.0,90,–
"CN1CC[C@]23c4c5ccc(O)c4O[C@H]2[C@@H](O)C=C[C@H]3[C@H]1C5 [Morphine, morphine]",–,–,–,–,–,–,–,–,–,–,10,–,–,"anti-allodynia, in words [2]: elicited anti-allodynia"
CCCCCCOc1nsnc1C1=CCCN(C)C1 [Xanomeline],10.0,10,10.0,–,potent and efficacious full agonists,–,–,–,–,109,10.0,10.0,–,dose that did not reverse thermal hyperalgesia ([1]; p>0.05 relative to vehicle): 3 mg/kg
CCCCC1CCN(CCCN2C(=O)COc3cc(F)ccc32)CC1 [Formula (IX)],10.0,10,17.8,17.8,weak partial agonists,501,not active,potent and efficacious M(1) agonist,31.6,48,–,–,79,"effect on tactile allodynia after PSL, in words ([6]; M(1) receptor knockout (KO) mice, 30 mg/kg): completely abolished; effect on tactile allodynia after PSL, in words ([6]; mice, intracerebroventricular (i.c.v.) administration): significantly reversed tactile allodynia; effect on tactile allodynia after PSL, in words ([6]; wild type (WT) mice, 30 mg/kg): significantly alleviated the tactile allodynia"
CCCCC1CCN(CCCc2nsc3ccccc23)CC1 [Formula (VII)],10.0,10,10.0,10,weak partial agonists,1260,not active,potent and efficacious M(1) agonist,79.4,36,–,–,85,–
O=C1CCCN1CC#CCN1CCCC1 [Oxotremorine],0.3,–,0.3,–,potent and efficacious full agonists,–,–,potent and efficacious full agonists,–,–,–,0.3,–,"paw withdrawal latency ([1]; dose 1 mg/kg): 18.468 ± 1.532 s; EC50 [3]: 15.8 nM; Emax [3]: 104%; Chromodaccyhrea, number of animals exhibiting ([7]; 0.1 mg/kg): 0; Diarrhea, number of animals exhibiting ([7]; 0.1 mg/kg): 1; Lethargy, number of animals exhibiting ([7]; 0.1 mg/kg): 0; Salivation, number of animals exhibiting ([7]; 0.1 mg/kg): 0; Tremor, number of animals exhibiting ([7]; 0.1 mg/kg): 0; Chromodaccyhrea, number of animals exhibiting ([7]; 0.3 mg/kg): 2; Diarrhea, number of animals exhibiting ([7]; 0.3 mg/kg): 7; Lethargy, number of animals exhibiting ([7]; 0.3 mg/kg): 0; Salivation, number of animals exhibiting ([7]; 0.3 mg/kg): 9; Tremor, number of animals exhibiting ([7]; 0.3 mg/kg): 0; Chromodaccyhrea, number of animals exhibiting ([7]; 1 mg/kg): 8; Diarrhea, number of animals exhibiting ([7]; 1 mg/kg): 18; Lethargy, number of animals exhibiting ([7]; 1 mg/kg): 18; Salivation, number of animals exhibiting ([7]; 1 mg/kg): 16; Tremor, number of animals exhibiting ([7]; 1 mg/kg): 6; EC50 [5]: 63.1 nM; Emax [5]: 91%"
